For series [1], the target named is T1, recombinant rat FAAH (rFAAH) (Rattus norvegicus, UniProt P97612).
T1 construct: expressed in transfected cells; host or cells: HEK293-rFAAH cells (homogenate supernatant)
T1 sequence (P97612 1-579): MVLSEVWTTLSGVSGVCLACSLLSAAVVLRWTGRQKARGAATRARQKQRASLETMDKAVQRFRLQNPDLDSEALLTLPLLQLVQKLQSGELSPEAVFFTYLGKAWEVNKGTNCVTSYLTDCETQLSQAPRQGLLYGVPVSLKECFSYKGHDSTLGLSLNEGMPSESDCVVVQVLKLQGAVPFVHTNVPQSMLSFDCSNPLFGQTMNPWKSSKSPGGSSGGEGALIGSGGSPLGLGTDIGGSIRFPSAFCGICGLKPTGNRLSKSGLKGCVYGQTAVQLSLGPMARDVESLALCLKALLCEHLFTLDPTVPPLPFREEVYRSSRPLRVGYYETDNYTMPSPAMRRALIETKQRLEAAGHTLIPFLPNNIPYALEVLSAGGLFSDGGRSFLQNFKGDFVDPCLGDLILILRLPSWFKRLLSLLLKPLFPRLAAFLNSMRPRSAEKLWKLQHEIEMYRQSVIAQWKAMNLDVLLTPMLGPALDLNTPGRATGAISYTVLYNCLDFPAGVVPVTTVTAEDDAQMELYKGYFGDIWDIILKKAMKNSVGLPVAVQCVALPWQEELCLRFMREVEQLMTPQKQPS
The series is described as follows: FAAH enzyme activity assay (AEA hydrolysis, HPLC-MS/MS). The conditions noted are these: for FAAH inhibitory activity (in words): rFAAH enzyme assay; for fold decrease in FAAH inhibitory potency vs. compound 1: compared with parent compound 1. It is filed as biochemical. How it is done:
The substituted 2,4-dioxopyrimidine-1-carboxamides and the related analogues described above were subjected to in vitro biological evaluation toward recombinant rat FAAH derived from HEK293-rFAAH cell. Enzyme assays were performed at 37 °C by incubating 30 µg of rFAAH protein with 25 μM anandamide as substrate in Tris-HCl buffer containing fatty acid-free BSA (0.05%). When the reactions were terminated, 1 nmol heptadecanoic acid (17:0 FFA) was added as an internal standard. […] The hydrolyzate of AEA (arachidonic acid), together with heptadecanoic acid was detected in HPLC/MS/MS to estimate the potency of rFAAH inhibition according to the methods previously described.
The inhibition effects of uracil derivatives toward recombinant rat FAAH (rFAAH) were assessed by enzyme activity assay. HEK293-rFAAH cells were harvested, washed with PBS, sonicated in 20 mM Tris-HCl (pH 7.5) containing 0.32 M sucrose, and centrifuged at 800× g for 15 min at 4 °C. The supernatants were collected and protein concentrations were measured by BCA protein assay kit (Pierce, Shanghai, China). FAAH proteins (30 μg) were incubated at 37 °C for 30 min in Tris buffer (50 mM, pH = 8.0) containing fatty acid-free BSA (0.05%) and 25 μM AEA (Sigma-Aldrich, Shanghai, China) as substrate. The above reactions were stopped by adding 200 μL methanol containing 1 nmol heptadecanoic acid (17:0 FFA) as internal standard. The reaction mixture was extracted with 4 mL chloroform and then vortex for 1 min. Lipid layer was separated by centrifugation at 3000× g for 10 min and then transferred to a clean 10 mL V-bottom glass tube and dried under nitrogen (N2) flow. After redissolved with 1 mL CHCl3, the lipid solution went through the solid-phase extraction, and was eluted by methanol/chloroform (v/v, 1/9). The elution containing FAEs and FFAs was dried under N2, and reconstituted in 100 μL methanol for HPLC-MS/MS analysis.
Samples were detected by an ABI 3200 Q-Trap mass spectrometer (Applied Biosystems/MDS Sciex) equipped with 1100-LC system (Agilent, Shanghai, China). The mobile phase for FFAs detection was consisted of MeOH and ultra-pure H2O (pH = 7.4, each containing 0.25% acetic acid and 5 mmol/L ammonium acetate), and the elution condition was 95% methanol keeping for 3 min at a flow rate of 1.0 mL·min^−^1. The column temperature was kept at 40 °C. Ion detection was monitored by ESI negative mode. The molecular ions were monitored at m/z 303 for AA, and m/z 269 for C17:0 FFA. Inhibition curves and IC50 values of each compounds was calculated by GraphPad Prism (version 5.01, GraphPad Software Inc., San Diego, CA, USA).

Setting [2] is: rFAAH protein 30 μg from HEK293-rFAAH cells, 25 μM anandamide, 37 °C, 30 min, Tris buffer pH 8.0, read-out: IC50 of FAAH Inhibition.
Where [3] appears, read: as stated in abstract, read-out: IC50 (FAAH inhibition).

“And” between values parts separate entries of the source, which are not always exact repeats. Identical values can stand only once. Like-named read-outs stand apart in the source and are kept apart here. Bounds are passed on as bounds.

The values that follow come from paper PMC6274076, “Discovery of Uracil Derivatives as Potent Inhibitors of Fatty Acid Amide Hydrolase” (Molecules, 2016).

For `O=C(NCCc1ccccc1)n1cc(F)c(=O)[nH]c1=O` [Compound 10, 5-Fluoro-N-(2-phenylethyl)-2,4-dioxopyrimidine-1-carboxamide], in series [1] (setting [2]), the IC50 amounted to 98 ± 10 nM.

On to `O=C(NCc1ccc2ccccc2c1)n1ccc(=O)[nH]c1=O` [Compound 12], for which the melting point lay within 84 to 84.6 °C. For `CCCCCCNC(=O)n1ccc(=O)[nH]c1=O` [Compound 1, N-Hexyl-2,4-dioxo-pyrimidine-1-carboxamide], the IC50 in series [1] (setting [2]) worked out at 110 ± 30 nM.

Turning to `O=C(NCCc1ccccc1)n1cc(C(F)(F)F)c(=O)[nH]c1=O` [Compound 11, N-(2-Phenylethyl)-5-trifluoromethyl-2,4-dioxopyrimidine-1-carboxamide], the figures for the IC50 in series [1] (setting [3]) and in series [1] (setting [2]) were 21 nM and 21 ± 4 nM, respectively. Consider `CCCCCCNC(=O)Cn1cc(F)c(=O)[nH]c1=O` [Compound 21, 2-[5-Fluoro-2,4-dioxopyrimidinyl]-N-hexylacetamide], for which the “FAAH inhibitory activity (in words)” value in series [1] was “total loss of the FAAH inhibitory activity”. For the same compound, the IC50 in series [1] (setting [2]) was > 100000 nM. The like results for `CCCCCCCn1cc(F)c(=O)[nH]c1=O` [Compound 20, 5-Fluoro-1-heptyl-2,4-dioxopyrimidine] were, in that order, “not inhibited at all” and > 100000 nM.

Turning to `CCCCCCNC(=O)n1cc(C)c(=O)[nH]c1=O` [Compound 5, N-Hexyl-5-methyl-2,4-dioxopyrimidine-1-carboxamide], the “fold decrease in FAAH inhibitory potency vs. compound 1” value in series [1] was 2- to 3 fold. Moreover, the IC50 in series [1] (setting [2]) stood at 250 ± 30 nM.

In the case of `O=C(NCCc1ccccc1)n1cc(O)c(=O)[nH]c1=O` [Compound 18, 5-hydroxy-N-(2-phenylethyl)-2,4-dioxopyrimidine-1-carboxamide], the IC50 in series [1] (setting [2]) came to 540 ± 70 nM. As to `CCCCCCNC(=O)n1c(C)cc(=O)[nH]c1=O` [Compound 6, N-Hexyl-6-methyl-2,4-dioxopyrimidine-1-carboxamide], the “fold decrease in FAAH inhibitory potency vs. compound 1” value in series [1] was 8- to 10 fold. Also, the IC50 in series [1] (setting [2]) is 1270 ± 210 nM.

Turning to `Cc1cn(C(=O)NCCc2ccccc2)c(=O)[nH]c1=O` [Compound 8, 5-Methyl-N-(2-phenylethyl)-2,4-dioxopyrimidine-1-carboxamide], the IC50 in series [1] (setting [2]) came out at 1070 ± 140 nM. For the compound `O=C(NCCc1ccccc1)n1ccc(=O)[nH]c1=O` [Compound 7, N-(2-Phenylethyl)-2,4-dioxopyrimidine-1-carboxamide], in series [1], the “fold decrease in FAAH inhibitory potency vs. compound 1” value is on record as 3 fold. For the same compound, the IC50 in series [1] (setting [2]) was found to be 300 ± 70 nM. Take `CCCCCCCn1ccc(=O)[nH]c1=O` [Compound 19, 1-Heptyl-2,4-dioxopyrimidine]: the “FAAH inhibitory activity (in words)” value in series [1] is on record as “not inhibited at all”. The IC50 in series [1] (setting [2]) was > 100000 nM. On to `CCCCCCNC(=O)n1ccc(=O)n(C)c1=O` [Compound 4, N-Hexyl-3-methyl-2,4-dioxopyrimidine-1-carboxamide], for which the “fold decrease in FAAH inhibitory potency vs. compound 1” value in series [1] is 8- to 10 fold. For the same compound, the IC50 in series [1] (setting [2]) amounted to 860 ± 80 nM.

Consider `CCCCCCNC(=O)N1CCC(=O)NC1=O` [Compound 2, N-Hexyl-2,4-dioxotetrahydropyrimidine-1-carboxamide], for which the “FAAH inhibitory activity (in words)” value in series [1] is “no inhibitory activity”. The IC50 in series [1] (setting [2]) is > 10000 nM.

Consider `Nc1cn(C(=O)NCCc2ccccc2)c(=O)[nH]c1=O` [Compound 17, 5-Amino-N-(2-phenylethyl)-2,4-dioxopyrimidine-1-carboxamide], for which the IC50 in series [1] (setting [2]) amounted to 1330 ± 130 nM. The same measure, in the same setting: under `COc1cn(C(=O)NCCc2ccccc2)c(=O)[nH]c1=O` [Compound 9, 5-Methoxy-N-(2-phenylethyl)-2,4-dioxopyrimidine-1-carboxamide] stands 530 nM and 531 nM. Regarding `O=C(NCc1ccc(-c2ccccc2)cc1)n1ccc(=O)[nH]c1=O` [Compound 14, N-[2-(4-Biphenyl)methyl]-2,4-dioxopyrimidine-1-carboxamide], the figures for the IC50 in series [1] (setting [3]) and in series [1] (setting [2]) were 53 nM and 53 ± 6 nM, respectively. As to `CCCCCCNC(=O)N1CCCNC1=O` [Compound 3, N-Hexyl-2-oxotetrahydropyrimidine-1-carboxamide], the “FAAH inhibitory activity (in words)” value in series [1] is reported as “loss of FAAH inhibitory activities”. Besides, the IC50 in series [1] (setting [2]) was > 10000 nM.

In the case of `O=C(NCc1ccc(-c2ccccc2)cc1)n1cc(F)c(=O)[nH]c1=O` [Compound 15, N-[2-(4-biphenyl)methyl]-5-fluoro-2,4-dioxo-pyrimidine-1-carboxamide], the “fold less potent vs. compound 14” value in series [1] (compared with compound 14) is recorded as 2 fold. In addition, in series [1] (setting [2]), the IC50 stood at 100 ± 10 nM. In the case of `O=C(Nc1cn(C(=O)NCCc2ccccc2)c(=O)[nH]c1=O)OCc1ccccc1` [Compound 16, Benzyl (2,4-dioxo-1-{[(2-phenylethyl)amino]carbonyl}-1,2,3,4-tetrahydro-5-pyrimidinyl)carbamate (2H)-carboxamide], the “increase of FAAH inhibitory potency vs. compound 17” value in series [1] (compared with compound 17) was “about 10 times”. Also, in series [1] (setting [2]), the IC50 was determined as 120 ± 30 nM.
